Reference: ChEMBL document CHEMBL1201862, “PubChem BioAssay data set” (2004)
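48-hour exposure; five concentrations; linearly interpolated endpoints. Here, GI50 denotes the concentration required for 50% inhibition of growth.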 Activity calls are given as the source filed them. Cut-off read from the data, not from the text of the source: active = GI50 up to about 1.1 µM and inactive = higher.

Assays:
Test in all cases: NCI tumour cell line growth inhibition, 48 h
A549 = test system: A549
CAKI-1 = test system: CAKI-1
COLO 205 = test system: COLO 205
HCC 2998 = test system: HCC 2998
HCT-116 = test system: HCT-116
K562 = test system: K562
KM12 = test system: KM12
M14 = test system: M14
MOLT-4 = test system: MOLT-4
NCI-H226 = test system: NCI-H226
OVCAR-8 = test system: OVCAR-8
PC-3 = test system: PC-3
RPMI-8226 = test system: RPMI-8226
SF-268 = test system: SF-268
SF-295 = test system: SF-295
SK-MEL-28 = test system: SK-MEL-28
SK-OV-3 = test system: SK-OV-3
SNB-19 = test system: SNB-19
TK-10 = test system: TK-10
SF-539 = test system: SF-539

Measured: GI50

N#C[C@](CO)(NC(=O)OCc1ccccc1)C(F)F
inactive: A549 > 100 µM | CAKI-1 > 100 µM | COLO 205 > 100 µM | HCC 2998 > 100 µM | HCT-116 > 100 µM | K562 > 100 µM | KM12 > 100 µM | M14 > 100 µM | MOLT-4 > 100 µM | NCI-H226 > 100 µM | OVCAR-8 > 100 µM | PC-3 > 100 µM | RPMI-8226 > 100 µM | SF-268 > 100 µM | SF-295 > 100 µM | SK-MEL-28 > 100 µM | SK-OV-3 > 100 µM | SNB-19 > 100 µM | TK-10 > 100 µM

CC(C)CCC[C@@H](C)[C@H]1CC[C@H]2[C@@H]3CC=C4C[C@@H](OC(=O)c5cccc6c(=O)c7ccccc7[nH]c56)CC[C@]4(C)[C@H]3CC[C@]12C
inactive: A549 > 75 µM | COLO 205 > 75 µM | HCC 2998 > 75 µM | K562 43.7 µM | KM12 > 75 µM | M14 > 75 µM | MOLT-4 > 75 µM | NCI-H226 > 75 µM | OVCAR-8 > 75 µM | PC-3 > 75 µM | RPMI-8226 > 75 µM | SF-268 > 75 µM | SF-295 > 75 µM | SF-539 > 75 µM | SK-MEL-28 > 75 µM | SK-OV-3 > 75 µM | SNB-19 > 75 µM | TK-10 > 75 µM

N#Cc1c(-c2ccc(Cl)cc2)c(C#N)c(=O)n(NS(=O)(=O)c2ccccc2)c1-c1ccccc1
inactive: A549 > 25 µM | CAKI-1 > 25 µM | COLO 205 > 25 µM | HCC 2998 > 25 µM | HCT-116 > 25 µM | K562 > 25 µM | M14 > 25 µM | MOLT-4 > 25 µM | PC-3 > 25 µM | RPMI-8226 17.2 µM | SF-295 > 25 µM | SF-539 > 25 µM | SK-MEL-28 > 25 µM | SK-OV-3 > 25 µM | SNB-19 > 25 µM | TK-10 > 25 µM

COc1ccc(/C=C2\OC(=O)C(Cl)=C2c2ccc(OC)c(Cl)c2)cc1
inactive: A549 24.4 µM | CAKI-1 21.9 µM | COLO 205 40.4 µM | HCC 2998 35.3 µM | HCT-116 39.1 µM | K562 56.1 µM | KM12 28.7 µM | M14 25.4 µM | MOLT-4 48.9 µM | OVCAR-8 21.1 µM | PC-3 30.8 µM | RPMI-8226 24.9 µM | SF-268 17.3 µM | SF-295 25.5 µM | SF-539 15.2 µM | SK-MEL-28 35.7 µM | SK-OV-3 33.9 µM | SNB-19 34.1 µM | TK-10 21.7 µM

Nn1c(S)nnc1CCCCCCCCc1nnc(S)n1N
inactive: A549 > 100 µM | CAKI-1 > 100 µM | COLO 205 > 100 µM | HCC 2998 > 100 µM | HCT-116 > 100 µM | K562 > 100 µM | KM12 > 100 µM | M14 > 100 µM | MOLT-4 > 100 µM | NCI-H226 > 100 µM | OVCAR-8 > 100 µM | PC-3 > 100 µM | RPMI-8226 > 100 µM | SF-268 > 100 µM | SF-295 > 100 µM | SF-539 > 100 µM | SK-MEL-28 > 100 µM | SK-OV-3 > 100 µM | SNB-19 > 100 µM

CCN1CCN(c2nc3ccccc3nc2C(=O)c2ccc(OC)cc2)CC1
inactive: A549 23.8 µM | CAKI-1 39.8 µM | COLO 205 > 100 µM | HCC 2998 > 100 µM | HCT-116 6.07 µM | K562 43.9 µM | KM12 24.8 µM | M14 15 µM | MOLT-4 28.8 µM | OVCAR-8 60.7 µM | PC-3 78 µM | RPMI-8226 7.19 µM | SF-268 29.4 µM | SF-295 32.7 µM | SF-539 26.4 µM | SK-MEL-28 36 µM | SK-OV-3 > 100 µM | SNB-19 90.2 µM | TK-10 22.6 µM

Cn1cc(NC(=O)Nc2cc(C(=O)Nc3cc(C(=O)Nc4cc(S(=O)(=O)O)c5cc(S(=O)(=O)O)cc(S(=O)(=O)O)c5c4)n(C)c3)n(C)c2)cc1C(=O)Nc1cc(C(=O)Nc2cc(S(=O)(=O)O)c3cc(S(=O)(=O)O)cc(S(=O)(=O)O)c3c2)n(C)c1
inactive: A549 > 100 µM | COLO 205 > 100 µM | HCC 2998 > 100 µM | HCT-116 > 100 µM | K562 > 100 µM | KM12 > 100 µM | M14 > 100 µM | MOLT-4 > 100 µM | NCI-H226 > 100 µM | OVCAR-8 > 100 µM | PC-3 > 100 µM | RPMI-8226 > 100 µM | SF-268 > 100 µM | SF-295 > 100 µM | SF-539 > 100 µM | SK-MEL-28 > 100 µM | SK-OV-3 > 100 µM | SNB-19 > 100 µM | TK-10 87.1 µM
